Structures can show the parent of a compound that is named as a salt. Where two headings read alike, the source gives them in different places.
How the values were obtained:
[1] = system: Primary hippocampal neurons; assay: Cell viability assay (CellTiter-Glo) in neurons; type: cell-based, Wistar rats; settings: for IC50: concentration diminishing cell viability by 50% vs vehicle
Protocol: Cell viability was measured at 24, 48, and 72 h of treatment with different drug concentration ranges. For each cellular type, we determined the half-maximal inhibitory concentration (IC50) of each drug.
(§1) Primary hippocampal neurons were obtained from Wistar rats on embryonic day 18. Briefly, embryos were removed from the womb under sterile conditions and decapitated to dissect the brains. Hippocampi were isolated at 4 °C in Hank’s balanced salt solution (HBSS) without calcium and magnesium, supplemented with 10 mM HEPES buffered saline and 100 U/mL of penicillin-streptomycin. The hippocampi were mechanically disaggregated using fire-polished pipettes and plated for 2–4 h in neuronal plating medium composed of minimum essential medium (MEM) enriched with 0.6% D-glucose and 10% horse serum. Neuronal plating medium was replaced by neurobasal medium supplemented with 1X B-27 and 2 mM L-glutamine. Neurons were grown for 7 days prior to the experiments. For the microglial cells, we used the BV-2 immortalized murine cell line. Microglial cells were cultured in Dulbecco’s modified Eagle medium (DMEM) with 4.5 g/L D-glucose, 2 mM L-glutamine, 100 U/mL of penicillin-streptomycin, and 10% heat-inactivated fetal bovine serum. Cells were maintained at 37 °C in a humidified incubator with 5% CO2. All culture media were purchased from Thermo Fisher Scientific (Waltham, MA, USA).
(§2) Neurons and microglia were both seeded at a density of 10,000 cells/well in 96-well plates previously treated with 0.1 mg/mL of poly-L-lysine (Sigma-Aldrich). […] Cell viability was determined at 24, 48, and 72 h. The percentage of viable cells was quantified using the CellTiter-Glo® Luminescent Cell Viability Assay (Promega Biotech Ibérica, Madrid, Spain) following the instructions by the manufacturer. The […] of the cell culture media alone was subtracted as the background from all readings. Cell viability in the drug-treated cells was normalized to their respective vehicle controls. Experiments were repeated three times, each condition in triplicate.
(§3) Statistical analysis was performed using Prism 8 software (GraphPad, Boston, MA, USA). For the cell viability assays, a linear regression analysis was made with logarithmic transformation of the drug concentrations in the X-axis. The coefficient of determination (R²) was calculated as a measurement of the adjustment of the data to the regression model. The Mann–Whitney test was used to compare two different conditions. The Kruskal–Wallis test was used to compare the different concentrations of each drug against the vehicle or LPS. Statistical significance was established at p < 0.05.

[2] = system: neurons; assay: RNA-sequencing of drug-treated neurons; type: cell-based, rat
[3] = system: Nrf2; assay: Nrf2 nuclear translocation by immunofluorescence in microglia; type: cell-based, murine; settings: for Nrf2 activation (nuclear translocation), result in words: 4 h, any tested concentration
Protocol: as §1
For the immunofluorescence experiments, neurons and microglia were directly seeded on glass coverslips previously treated with 1 mg/mL of poly-L-lysine. […] After the drug treatments, the cells were fixed on ice with 4% paraformaldehyde for 25 min and then permeabilized and blocked using 0.1% Triton X-100 (10 min) and 5% BSA (30 min), respectively. Cells were then incubated overnight with the primary antibodies and 1% BSA at 4 °C. The primary antibodies anti-Nrf2 (ab1375550) and anti-NF-kB p65 (ab16502) (both from Abcam, Cambridge, United Kingdom) were used at 1:200. […] For each experimental condition, five random fields were captured and analyzed using ImageJ software (National Institutes of Health, Maryland, DC, USA). Activation of Nrf2 or NF-kB was defined as nuclear translocation, measured by the increase in the mean fluorescence intensity (MFI) in the nucleus. […]

[4] = system: BV-2 immortalized murine cell line (microglia); assay: Cell viability assay (CellTiter-Glo) in microglia; type: cell-based
Protocol: Cell viability was measured at 24, 48, and 72 h of treatment with different drug concentration ranges. For each cellular type, we determined the half-maximal inhibitory concentration (IC50) of each drug. In neurons, as a non-proliferative primary culture, the IC50 was defined as the drug concentration able to diminish cell viability by 50% with respect to the vehicle-treated control. In microglia, as a proliferative cell line, the IC50 was defined as the drug concentration able of inhibiting by 50% cellular proliferation with respect to the vehicle-treated control.
as §1, §2, §3

[5] = system: nitric oxide (NO) production in microglia; assay: Nitric oxide production (Griess Reagent System) in LPS-activated microglia; type: cell-based, murine; settings: for lowest concentration inhibiting the production of NO: LPS-activated microglia
Protocol: DMF and MMF (both from Sigma-Aldrich, Saint Louis, MO, USA) were prepared as stock solutions in dimethyl sulfoxide (DMSO); CBD (Cayman chemical, Ann Arbor, MI, USA) was prepared in ethanol (EtOH). Lipopolysaccharide (LPS) from Escherichia coli 026:B6 in an aqueous solution (Thermo Fisher Scientific) was used as proinflammatory stimuli in microglia at a final concentration of 600 ng/mL. For the LPS experiments, the concentration of fetal bovine serum in the microglia culture medium was reduced to 0.1% immediately before drug treatment. All of the compounds were titrated in their respective vehicle and diluted into the culture media for cell treatments. The final concentration of vehicle (DMSO, EtOH or H2O) was consistent for all treated cells (0.2%).
The concentration of nitrites was measured as an indirect indicator of nitric oxide (NO) production in microglia by using the colorimetric assay Griess Reagent System (Promega Biotech Ibérica, Madrid, Spain). Microglial cells were seeded in 96-well plates, previously treated with 0.1 mg/mL of poly-L-lysine, at a density of 50,000 cells/well. […] The concentration of NO was quantified at a wavelength of 520 nm in an absorbance reader plate. Experiments were repeated three times, each condition in triplicate.

[6] = system: Nrf2; assay: Nrf2 nuclear translocation by immunofluorescence in neurons; type: cell-based, Wistar rats; settings: for lowest concentration inducing nuclear translocation (activation) of Nrf2: significant vs vehicle
Protocol: as §1
For the immunofluorescence experiments, neurons and microglia were directly seeded on glass coverslips previously treated with 1 mg/mL of poly-L-lysine. […] After the drug treatments, the cells were fixed on ice with 4% paraformaldehyde for 25 min and then permeabilized and blocked using 0.1% Triton X-100 (10 min) and 5% BSA (30 min), respectively. Cells were then incubated overnight with the primary antibodies and 1% BSA at 4 °C. The primary antibodies anti-Nrf2 (ab1375550) and anti-NF-kB p65 (ab16502) (both from Abcam, Cambridge, United Kingdom) were used at 1:200. After washing with PBS, cells were incubated with the fluorophore-conjugated secondary antibody anti-Rabbit IgG Alexa Fluor 488 (Thermo Fisher Scientific) at 1:500 for 1 h at room temperature. Cells were counterstained with the TO-PRO fluorescent dye (Thermo Fisher Scientific) to visualize the cell nuclei. Images were captured using the confocal microscope Leica TCS SP5 (Leica Microsystems, Wetzlar, Germany). For each experimental condition, five random fields were captured and analyzed using ImageJ software (National Institutes of Health, Maryland, DC, USA). Activation of Nrf2 or NF-kB was defined as nuclear translocation, measured by the increase in the mean fluorescence intensity (MFI) in the nucleus. Each experiment was repeated three times.

[7] = 4 h, 30 µM DMF, 30 µM MMF, 6 µM CBD
[8] = 24 h, 30 µM DMF, 30 µM MMF, 6 µM CBD
[9] = Rattus norvegicus, Hippocampal neuron, 24 h, neurons, 24 h, read-out: IC50 (cell viability)
[10] = Rattus norvegicus, Hippocampal neuron, 48 h, neurons, 48 h, read-out: IC50 (cell viability)
[11] = Rattus norvegicus, Hippocampal neuron, 72 h, neurons, 72 h, read-out: IC50 (cell viability)
[12] = neurons, 24 h, read-out: IC50 (cell viability)
[13] = neurons, 72 h, read-out: IC50 (cell viability)
[14] = Mus musculus, Microglia, 24 h, microglia, 24 h, concentration inhibiting cellular proliferation by 50% vs vehicle, read-out: IC50 (cell viability)
[15] = Mus musculus, Microglia, 48 h, microglia, 48 h, concentration inhibiting cellular proliferation by 50% vs vehicle, read-out: IC50 (cell viability)
[16] = Mus musculus, Microglia, 72 h, microglia, 72 h, concentration inhibiting cellular proliferation by 50% vs vehicle, read-out: IC50 (cell viability)

C=C(C)[C@@H]1CCC(C)=C[C@H]1c1c(O)cc(CCCCC)cc1O [CBD, cannabidiol]
IC50 ([1]; Rattus norvegicus, Hippocampal neuron, 24 h, read-out: IC50 (cell viability), neurons, 24 h): 15.1 µM
IC50 ([1]; Rattus norvegicus, Hippocampal neuron, 48 h, read-out: IC50 (cell viability), neurons, 48 h): 13.6 µM
IC50 ([1]; Rattus norvegicus, Hippocampal neuron, 72 h, read-out: IC50 (cell viability), neurons, 72 h): 13 µM
decrease in cell viability ([1]; neurons, 10 µM): around 20%
IC50 ([1]; read-out: IC50 (cell viability), neurons, 24 h): 15 µM
IC50 ([1]; read-out: IC50 (cell viability), neurons, 72 h): 13 µM
number of differentially expressed genes (DEGs) vs vehicle [2, 7]: four
Hmox1 expression vs vehicle ([2]; 24 h, 6 µM CBD): 4.9 log2FC
number of DEGs with strong downregulation (fold change < −1) ([2]; 24 h, 6 µM CBD): eight
number of DEGs with strong upregulation (fold change > 1) ([2]; 24 h, 6 µM CBD): nine
number of downregulated DEGs vs vehicle ([2]; 24 h, 30 µM DMF, 6 µM CBD): 21
number of upregulated DEGs vs vehicle ([2]; 24 h, 30 µM DMF, 6 µM CBD): 12
number of differentially expressed genes (DEGs) vs vehicle [2, 8]: 33
Nrf2 activation (nuclear translocation), result in words [3]: did not produce the activation of Nrf2
IC50 ([4]; Mus musculus, Microglia, 24 h, read-out: IC50 (cell viability), microglia, 24 h, concentration inhibiting cellular proliferation by 50% vs vehicle): 12 µM
IC50 ([4]; Mus musculus, Microglia, 48 h, read-out: IC50 (cell viability), microglia, 48 h, concentration inhibiting cellular proliferation by 50% vs vehicle): 12.2 µM
IC50 ([4]; Mus musculus, Microglia, 72 h, read-out: IC50 (cell viability), microglia, 72 h, concentration inhibiting cellular proliferation by 50% vs vehicle): 11.8 µM
IC50 ([4]; Mus musculus, Microglia, 72 h, read-out: IC50 (cell viability), microglia, all of the studied timepoints (24, 48, 72 h)): ~12 µM
concentration of NO in the supernatant, in words ([5]; LPS + drug, 10 µM): almost undetectable
concentration of NO in the supernatant ([5]; LPS + drug, starting from 6 µM, all timepoints, LPS alone around 40 µM at 48 and 72 h): below 10 µM
lowest concentration inhibiting the production of NO [5]: 6 µM
Nrf2 nuclear protein levels, fold increase vs vehicle ([6]; 4 h, 5 µM): 4 fold
Nrf2 nuclear protein levels, fold increase vs vehicle ([6]; 4 h, 6 µM): 10 fold
Nrf2 nuclear protein levels, fold increase vs vehicle ([6]; 4 h, 7 µM): 10 fold
Nrf2 nuclear protein levels, fold increase vs vehicle ([6]; 4 h, 8 µM): 4 fold
Nrf2 nuclear protein levels, fold increase vs vehicle ([6]; 4 h, 10 µM): 4 fold
magnitude (peak) of Nrf2 activation, fold change of mean nuclear fluorescence intensity vs vehicle ([6]; 4 h treatment): 10 fold
lowest concentration inducing nuclear translocation (activation) of Nrf2 ([6]; 4 h treatment): 5 µM

COC(=O)/C=C/C(=O)OC [DMF, Dimethyl fumarate]
IC50 [1, 9]: 103 µM
IC50 [1, 10]: 54.5 µM
IC50 [1, 11]: 36.5 µM
decrease in cell viability ([1]; neurons, 30 µM): around 20%
IC50 [1, 12]: ~100 µM
IC50 [1, 13]: 36 µM
number of DEGs between 24 h and 4 h of treatment (across time) ([2]; 30 µM DMF): 1276
Hmox1 expression vs vehicle ([2]; 4 h, 30 µM DMF): 3.9 log2FC
number of downregulated DEGs vs vehicle ([2]; 4 h, 30 µM DMF): 169
number of upregulated DEGs vs vehicle ([2]; 4 h, 30 µM DMF): 238
number of differentially expressed genes (DEGs) vs vehicle [2, 7]: 407
Nfe2l2 expression vs vehicle ([2]; 24 h, 30 µM DMF): 0.94 log2Fc
number of downregulated DEGs vs vehicle ([2]; 24 h, 30 µM DMF, 6 µM CBD): 144
number of upregulated DEGs vs vehicle ([2]; 24 h, 30 µM DMF, 6 µM CBD): 120
Nqo1 expression vs vehicle ([2]; 24 h, 30 µM DMF, 30 µM MMF): 2.3 log2FC
number of differentially expressed genes (DEGs) vs vehicle [2, 8]: 264
lowest concentration inducing nuclear translocation (activation) of Nrf2 ([3]; 4 h treatment, significant vs vehicle): 10 µM
IC50 [4, 14]: 37.2 µM
IC50 [4, 15]: 40.8 µM
IC50 [4, 16]: 73.2 µM
IC50 ([4]; microglia, 24 h, concentration inhibiting cellular proliferation by 50% vs vehicle, read-out: IC50 (cell viability)): 37 µM
IC50 ([4]; microglia, 72 h, concentration inhibiting cellular proliferation by 50% vs vehicle, read-out: IC50 (cell viability)): 73 µM
concentration of NO in the supernatant ([5]; LPS + drug, 48 and 72 h, all studied concentrations from 1 µM, LPS alone around 40 µM): around 20 µM
lowest concentration inhibiting the production of NO [5]: ≤ 1 µM
lowest concentration inducing nuclear translocation (activation) of Nrf2 ([6]; 4 h treatment): 30 µM

COC(=O)/C=C/C(=O)O [MMF, monomethyl fumarate]
IC50 [1, 9]: 67.8 µM
IC50 [1, 10]: 42.5 µM
IC50 [1, 11]: 55.6 µM
IC50 [1, 12]: ~65 µM
IC50 [1, 13]: 55 µM
number of differentially expressed genes (DEGs) vs vehicle [2, 7]: did not produce any significant transcriptomic changes
Nqo1 expression vs vehicle ([2]; 24 h, 30 µM DMF, 30 µM MMF): 0.98 log2FC
number of differentially expressed genes (DEGs) vs vehicle [2, 8]: three
Gstp1 expression vs vehicle ([2]; 24 h, 30 µM MMF): 0.66 log2FC
Nrf2 activation (nuclear translocation), result in words [3]: did not observe Nrf2 activation
IC50 [4, 14]: 49.5 µM
IC50 [4, 15]: 41.7 µM
IC50 [4, 16]: 56.6 µM
IC50 ([4]; Mus musculus, Microglia, 72 h, microglia, all of the studied timepoints (24, 48, 72 h), read-out: IC50 (cell viability)): ~50 µM
inhibition of NO production, in words ([5]; LPS + drug, 24 h): significant NO inhibition
inhibition of NO production vs LPS-treated cells, in words ([5]; LPS + drug, same concentrations as DMF (from 1 µM)): halving the concentrations of NO
Nrf2 activation (nuclear translocation), result in words ([6]; 4 h, same concentrations as DMF (up to 30 µM)): did not observe the nuclear translocation of Nrf2
